The text below walks through data of US12415785B2, “Compound modulators of sting” (CTXT PTY LTD, priority 2019, dated 2025).

One test has as its target human STING (HAQ) (Homo sapiens, UniProt Q86WV6, G230A/H232R/R293Q). In words: Surface plasmon resonance (SPR), STING (HAQ). Format: binding. Conditions: biotinylated STING on streptavidin chip, 8° C. The method, then: Biophysical experiments were performed with three different recombinant human STING protein variants designated according to allelic nomenclature of Yi et al., (2013). Codon optimized DNA sequences (for expression in Escherichia coli) encoding amino acid residues 149 to 345 (Swiss Prot Q86WV6) of human STING (WT), human STING (HAQ) and human STING (R232H) were synthesised by GenScript USA Inc (Piscataway, New Jersey, USA). These were ligated into a modified pET43a E. coli expression vector designed to encode N-terminal His tag followed by tobacco etch virus protease (TEV) cleavage site and a STING gene sequence. The resulting protein sequences for the three allelic variants are listed below:
Binding interactions of ligands with STING proteins were quantified using Surface Plasmon Resonance (SPR) with a minimally biotinylated STING protein immobilized on a streptavidin chip surface. […] Minimal biotinylation of purified huSTING proteins was performed using a previously described methodology (Chhabra 2012). Briefly, approximately 20 nmol of recombinant STING protein in 1×TBS buffer (25 mM Tris-HCl, pH 7.5, 150 mM NaCl, 5 mM DTT) was mixed with of EZ-Link™ Sulfo-NHS-LC-LC-Biotin (Thermofisher Scientific, cat #21338) at a molar ratio of 1 to 0.6 and incubated on ice for 2 hours. To remove any unreacted biotin reagent, protein/biotin mixture was passed through a Superdex 75 (10/300 GL) column equilibrated with 10 mM HEPES, pH7.4, 150 mM NaCl, 5 mM DTT, 5%[v/v] glycerol. A protein peak containing biotinylated huSTING protein was collected and stored in aliquots at −80° C.
Streptavidin was simultaneously immobilized in all four channels of a CM5 sensor chip docked in a Biacore instrument (either Biacore S200 or Biacore T200, GE Healthcare) as described previously (Zender 2013). […]
All binding experiments were performed at 8° C. in SPR binding buffer. To determine binding affinity, compound interaction with immobilized STING protein was analysed using dose-response experiments. […]

Test [1] deals with human HAQ isoform of STING (THP-1 STING Lucia ISG cells) (Homo sapiens (Human), UniProt Q86WV6, G230A/H232R/R293Q/R71H). In words: THP-1 STING Lucia ISG reporter cell line assay. Format: cell-based. The settings on record: 24 h incubation, QUANTI-Luc luminescence. In outline:
(§1)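 THP-1 STING Lucia ISG cells (HAQ STING) or THP-1-Dual KI-hSTING-R232 cells (WT STING) treated 24 h at 37 °C with 11-point, 2.5-fold compound dilutions. ISG-driven Lucia luciferase read by luminescence, normalised to untreated wells and 40 μM ML RR-S2 CDA positive control; EC50 derived.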

The target of test [2] is WT human STING isoform (THP-1-Dual KI-hSTING-R232 cells) (Homo sapiens (Human), UniProt Q86WV6, H232R). In words: THP-1-Dual KI-hSTING-R232 reporter cell line assay. Format: cell-based. Conditions: 24 h incubation, QUANTI-Luc luminescence. In outline: as §1
WT human STING isoform (THP-1-Dual KI-hSTING-R232 cells), sequence (Q86WV6 whole entry H232R, canonical isoform): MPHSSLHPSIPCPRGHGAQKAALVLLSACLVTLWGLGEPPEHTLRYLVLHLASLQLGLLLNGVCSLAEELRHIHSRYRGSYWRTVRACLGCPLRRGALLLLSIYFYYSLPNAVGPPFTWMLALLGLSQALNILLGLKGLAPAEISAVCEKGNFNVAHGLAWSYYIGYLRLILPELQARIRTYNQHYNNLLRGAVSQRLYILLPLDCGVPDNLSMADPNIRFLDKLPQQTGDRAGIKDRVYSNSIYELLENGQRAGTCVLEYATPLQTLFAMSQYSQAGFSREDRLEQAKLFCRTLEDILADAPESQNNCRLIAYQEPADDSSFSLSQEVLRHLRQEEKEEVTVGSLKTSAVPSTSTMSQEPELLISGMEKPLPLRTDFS

human HAQ isoform of STING (THP-1 STING Lucia ISG cells), sequence (Q86WV6 whole entry R71H/G230A/H232R/R293Q, canonical isoform): as the sequence (Q86WV6 whole entry H232R, canonical isoform) above, with R71H, G230A, R293Q counted along it
human STING (HAQ), sequence (Q86WV6 whole entry G230A/H232R/R293Q, looked up, the tested form may be a part): as the sequence (Q86WV6 whole entry H232R, canonical isoform) above, with G230A, R293Q counted along it

On to `COc1c(C(N)=O)ccc2c1nc(-c1ccc(C(F)(F)F)cc1C(=O)O)n2CCn1c(-c2ccc(C(F)(F)F)cc2C(=O)O)nc2c(OC)c(C(N)=O)ccc21` [Example 38, 6,6′-(Ethane-1,2-diylbis(5-carbamoyl-4-methoxy-1H-benzo[d]imidazole-1,2-diyl))bis(3-(trifluoromethyl)benzoic acid)], for which, on human STING (HAQ), the dissociation constant (Kd) (as a rule, a measure of binding affinity in units of concentration) is over 100 µM. For the same compound, the half-maximal effective concentration (EC50) in test [1] and in test [2] was over 40 µM throughout.

Regarding `NC(=O)c1ccc2c(c1)nc(-c1cc(Br)ccc1C(=O)O)n2CCn1c(-c2cc(Br)ccc2C(=O)O)nc2cc(C(N)=O)ccc21` [Example 3, 2,2′-(Ethane-1,2-diylbis(5-carbamoyl-1H-benzo[d]imidazole-1,2-diyl))bis(4-bromobenzoic acid)], the Kd at human STING (HAQ) was over 10 µM. Besides, the EC50 in test [1] and in test [2] was over 40 µM throughout.

For `COc1c(C(N)=O)ccc2c1nc(-c1ccc(Cl)c(Cl)c1-c1nn[nH]n1)n2CCn1c(-c2ccc(Cl)c(Cl)c2-c2nn[nH]n2)nc2c(OC)c(C(N)=O)ccc21` [Example 37, 1,1′-(Ethane-1,2-diyl)bis(2-(3,4-dichloro-2-(2H-tetrazol-5-yl)phenyl)-4-methoxy-1H-benzo[d]imidazole-5-carboxamide)], the affinity at human STING (HAQ), expressed as Kd, was 0.2 µM. Also, the EC50 in test [1] and in test [2] was over 40 µM in each case.
